{"source": "patent US10231954B2", "about": "“Neurodegenerative therapies” (LYTIX BIOPHARMA AS, priority 2014, dated 2019)", "type_in_all_cases": "biochemical", "key": {"[1]": {"target": "JNK1 (Homo sapiens, UniProt P45983)", "sequence (P45983 whole entry, species assumed)": "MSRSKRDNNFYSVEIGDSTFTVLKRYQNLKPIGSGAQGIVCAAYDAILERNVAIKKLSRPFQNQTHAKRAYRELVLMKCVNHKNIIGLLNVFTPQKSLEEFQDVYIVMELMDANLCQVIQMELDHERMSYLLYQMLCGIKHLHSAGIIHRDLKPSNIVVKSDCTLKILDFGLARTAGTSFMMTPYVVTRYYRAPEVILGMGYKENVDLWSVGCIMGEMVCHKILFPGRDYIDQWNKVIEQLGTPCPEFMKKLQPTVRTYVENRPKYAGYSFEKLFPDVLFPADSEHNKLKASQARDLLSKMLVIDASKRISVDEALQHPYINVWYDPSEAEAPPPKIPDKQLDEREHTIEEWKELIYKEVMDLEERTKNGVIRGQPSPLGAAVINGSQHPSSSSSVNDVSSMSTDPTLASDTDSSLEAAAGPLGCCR", "test": "Kinase profiling JNK1", "source_text": "(§1) Any value less that 25 is considered to be highly significant inhibition."}, "[2]": {"target": "RSK2 (Homo sapiens, UniProt P51812)", "sequence (P51812 whole entry, species assumed)": "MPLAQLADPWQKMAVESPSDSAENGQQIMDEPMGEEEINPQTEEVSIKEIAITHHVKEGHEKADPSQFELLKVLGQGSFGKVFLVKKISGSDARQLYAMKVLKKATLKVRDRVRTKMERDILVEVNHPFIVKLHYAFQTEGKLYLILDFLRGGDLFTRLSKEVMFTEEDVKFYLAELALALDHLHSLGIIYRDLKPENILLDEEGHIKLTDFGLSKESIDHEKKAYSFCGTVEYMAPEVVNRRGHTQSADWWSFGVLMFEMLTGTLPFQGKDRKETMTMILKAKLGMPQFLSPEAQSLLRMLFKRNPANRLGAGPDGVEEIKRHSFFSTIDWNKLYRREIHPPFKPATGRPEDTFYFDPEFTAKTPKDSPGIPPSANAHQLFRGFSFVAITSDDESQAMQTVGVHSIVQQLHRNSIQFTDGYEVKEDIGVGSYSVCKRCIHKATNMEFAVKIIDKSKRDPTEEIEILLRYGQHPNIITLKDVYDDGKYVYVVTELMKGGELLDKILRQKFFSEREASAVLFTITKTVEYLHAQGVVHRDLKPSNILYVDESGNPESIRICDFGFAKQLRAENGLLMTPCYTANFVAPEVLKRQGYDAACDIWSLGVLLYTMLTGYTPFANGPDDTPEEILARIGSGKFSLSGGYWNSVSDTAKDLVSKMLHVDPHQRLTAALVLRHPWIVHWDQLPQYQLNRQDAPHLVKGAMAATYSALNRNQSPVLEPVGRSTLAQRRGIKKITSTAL", "test": "Kinase profiling RSK2", "settings": "100 micromolar inhibitor concentration; 100 is no change", "source_text": "as §1"}, "[3]": {"target": "T1, PDK1 (Homo sapiens, UniProt O15530)", "T1 sequence (O15530 1-556)": "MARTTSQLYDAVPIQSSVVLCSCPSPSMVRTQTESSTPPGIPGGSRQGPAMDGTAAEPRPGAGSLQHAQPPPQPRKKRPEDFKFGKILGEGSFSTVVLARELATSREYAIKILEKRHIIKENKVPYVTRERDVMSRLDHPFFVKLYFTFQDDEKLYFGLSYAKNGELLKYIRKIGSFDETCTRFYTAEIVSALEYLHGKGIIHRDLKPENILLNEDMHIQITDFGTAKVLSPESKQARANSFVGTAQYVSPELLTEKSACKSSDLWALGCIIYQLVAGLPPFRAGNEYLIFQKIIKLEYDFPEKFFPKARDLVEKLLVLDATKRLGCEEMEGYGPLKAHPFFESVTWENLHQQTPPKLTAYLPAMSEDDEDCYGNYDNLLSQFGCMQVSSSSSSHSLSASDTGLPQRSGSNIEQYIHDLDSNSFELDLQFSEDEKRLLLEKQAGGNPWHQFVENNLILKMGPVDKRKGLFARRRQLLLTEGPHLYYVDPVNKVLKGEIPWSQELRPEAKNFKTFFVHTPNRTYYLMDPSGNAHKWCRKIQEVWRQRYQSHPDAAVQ", "test": "Kinase profiling PDK1", "source_text": "as §1"}, "[4]": {"target": "MKK1 (Homo sapiens, UniProt Q02750)", "sequence (Q02750 whole entry, species assumed)": "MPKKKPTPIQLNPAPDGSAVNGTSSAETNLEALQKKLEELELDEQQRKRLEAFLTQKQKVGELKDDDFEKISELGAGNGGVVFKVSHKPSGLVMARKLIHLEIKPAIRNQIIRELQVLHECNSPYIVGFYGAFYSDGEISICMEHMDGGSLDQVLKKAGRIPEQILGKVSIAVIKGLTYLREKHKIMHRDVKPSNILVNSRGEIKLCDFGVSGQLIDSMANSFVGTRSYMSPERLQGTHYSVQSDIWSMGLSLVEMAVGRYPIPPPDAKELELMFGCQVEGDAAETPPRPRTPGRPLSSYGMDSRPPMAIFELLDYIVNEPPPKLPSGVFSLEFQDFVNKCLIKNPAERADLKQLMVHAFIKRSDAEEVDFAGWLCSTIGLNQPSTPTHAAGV", "test": "Kinase profiling MKK1", "source_text": "as §1"}, "[5]": {"target": "p38b MAPK (Homo sapiens, UniProt Q15759)", "sequence (Q15759 whole entry)": "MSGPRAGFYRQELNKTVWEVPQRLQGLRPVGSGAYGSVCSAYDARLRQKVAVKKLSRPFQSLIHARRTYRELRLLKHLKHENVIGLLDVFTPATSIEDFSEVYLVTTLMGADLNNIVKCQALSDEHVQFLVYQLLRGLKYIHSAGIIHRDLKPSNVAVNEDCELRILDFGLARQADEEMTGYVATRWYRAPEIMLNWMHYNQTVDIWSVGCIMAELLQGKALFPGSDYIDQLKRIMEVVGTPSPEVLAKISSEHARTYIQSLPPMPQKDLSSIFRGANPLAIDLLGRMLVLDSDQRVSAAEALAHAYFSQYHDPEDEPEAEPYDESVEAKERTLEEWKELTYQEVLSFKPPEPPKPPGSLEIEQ", "test": "Kinase profiling p38b MAPK", "settings": "100 micromolar inhibitor concentration; 100 is no change", "source_text": "as §1"}, "[6]": {"target": "RSK1 (Homo sapiens, UniProt Q15418)", "sequence (Q15418 whole entry, species assumed)": "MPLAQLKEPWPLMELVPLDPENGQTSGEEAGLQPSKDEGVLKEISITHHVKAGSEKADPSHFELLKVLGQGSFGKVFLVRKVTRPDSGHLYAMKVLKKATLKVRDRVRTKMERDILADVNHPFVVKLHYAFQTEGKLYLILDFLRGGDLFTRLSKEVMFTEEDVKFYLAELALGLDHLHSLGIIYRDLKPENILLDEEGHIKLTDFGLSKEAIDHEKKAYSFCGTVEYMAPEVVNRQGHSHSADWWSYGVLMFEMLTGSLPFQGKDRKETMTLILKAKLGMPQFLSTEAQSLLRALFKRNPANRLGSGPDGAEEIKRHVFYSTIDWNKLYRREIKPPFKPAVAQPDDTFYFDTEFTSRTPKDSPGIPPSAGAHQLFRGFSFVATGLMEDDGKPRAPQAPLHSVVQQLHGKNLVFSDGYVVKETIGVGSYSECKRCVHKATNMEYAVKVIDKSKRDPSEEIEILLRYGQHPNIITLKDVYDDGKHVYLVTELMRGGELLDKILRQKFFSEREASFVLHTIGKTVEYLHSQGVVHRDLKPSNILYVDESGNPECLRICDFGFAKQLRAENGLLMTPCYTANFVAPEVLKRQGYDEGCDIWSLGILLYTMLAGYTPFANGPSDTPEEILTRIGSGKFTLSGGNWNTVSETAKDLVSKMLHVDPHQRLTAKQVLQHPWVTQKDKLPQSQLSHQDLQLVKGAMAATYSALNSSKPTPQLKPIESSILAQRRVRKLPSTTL", "test": "Kinase profiling RSK1", "source_text": "as §1"}, "[7]": {"target": "ERK2 (Homo sapiens, UniProt P28482)", "sequence (P28482 whole entry, species assumed)": "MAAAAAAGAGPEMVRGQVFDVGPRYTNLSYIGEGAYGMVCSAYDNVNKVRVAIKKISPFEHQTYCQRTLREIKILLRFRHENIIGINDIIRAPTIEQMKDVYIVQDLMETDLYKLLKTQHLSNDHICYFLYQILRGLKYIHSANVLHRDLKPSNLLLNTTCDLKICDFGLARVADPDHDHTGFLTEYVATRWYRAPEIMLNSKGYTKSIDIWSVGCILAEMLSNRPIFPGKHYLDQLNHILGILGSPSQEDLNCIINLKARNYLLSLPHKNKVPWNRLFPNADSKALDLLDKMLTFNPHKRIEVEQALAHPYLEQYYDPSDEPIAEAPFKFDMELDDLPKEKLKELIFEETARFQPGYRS", "test": "Kinase profiling ERK2", "settings": "100 micromolar inhibitor concentration; 100 is no change", "source_text": "as §1"}, "[8]": {"target": "TrkA (Homo sapiens, UniProt P04629)", "test": "Kinase profiling TrkA", "source_text": "as §1"}, "[9]": {"target": "DYRK1A (Homo sapiens, UniProt Q13627)", "test": "DYRK 1A assay (kinase profiling)", "method": "Assays are stopped by addition of 5 μl of 0.5 M (3%) orthophosphoric acid and then harvested onto P81 Unifilter plates with a wash buffer of 50 mM orthophosphoric acid.\nas §1"}, "[10]": {"target": "HER4 (Homo sapiens, UniProt Q15303)", "test": "Kinase profiling HER4", "source_text": "as §1"}, "[11]": {"target": "PLK1 (Homo sapiens, UniProt P53350)", "sequence (P53350 whole entry, species assumed)": "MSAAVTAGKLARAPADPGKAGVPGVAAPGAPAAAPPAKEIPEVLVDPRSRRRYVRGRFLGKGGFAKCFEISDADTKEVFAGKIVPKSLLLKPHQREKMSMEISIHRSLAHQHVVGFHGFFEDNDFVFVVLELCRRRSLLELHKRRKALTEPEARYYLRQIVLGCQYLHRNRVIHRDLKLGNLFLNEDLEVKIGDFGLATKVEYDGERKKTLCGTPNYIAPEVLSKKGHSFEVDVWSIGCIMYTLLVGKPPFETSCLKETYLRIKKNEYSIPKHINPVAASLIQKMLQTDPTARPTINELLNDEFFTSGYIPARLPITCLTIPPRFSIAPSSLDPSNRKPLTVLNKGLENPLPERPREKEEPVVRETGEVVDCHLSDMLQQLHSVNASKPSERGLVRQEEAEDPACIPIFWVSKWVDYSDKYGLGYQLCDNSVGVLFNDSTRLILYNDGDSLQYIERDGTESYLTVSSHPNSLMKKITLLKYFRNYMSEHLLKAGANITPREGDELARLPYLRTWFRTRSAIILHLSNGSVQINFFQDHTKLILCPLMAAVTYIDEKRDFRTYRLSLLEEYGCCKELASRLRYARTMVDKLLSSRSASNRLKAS", "test": "Kinase profiling PLK1", "source_text": "as §1"}, "[12]": {"target": "NEK6 (Homo sapiens, UniProt Q9HC98)", "sequence (Q9HC98 whole entry, species assumed)": "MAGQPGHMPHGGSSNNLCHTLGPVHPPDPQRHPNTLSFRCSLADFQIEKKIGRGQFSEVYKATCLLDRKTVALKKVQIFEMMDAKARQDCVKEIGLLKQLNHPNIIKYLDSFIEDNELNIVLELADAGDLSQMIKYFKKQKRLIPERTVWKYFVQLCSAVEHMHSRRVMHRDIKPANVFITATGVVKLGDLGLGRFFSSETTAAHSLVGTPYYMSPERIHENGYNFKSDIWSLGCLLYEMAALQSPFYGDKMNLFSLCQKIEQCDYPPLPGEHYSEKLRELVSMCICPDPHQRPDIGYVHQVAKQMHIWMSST", "test": "Kinase profiling NEK6", "source_text": "as §1"}, "[13]": {"target": "CAMK1 (Homo sapiens, UniProt Q14012)", "sequence (Q14012 whole entry, species assumed)": "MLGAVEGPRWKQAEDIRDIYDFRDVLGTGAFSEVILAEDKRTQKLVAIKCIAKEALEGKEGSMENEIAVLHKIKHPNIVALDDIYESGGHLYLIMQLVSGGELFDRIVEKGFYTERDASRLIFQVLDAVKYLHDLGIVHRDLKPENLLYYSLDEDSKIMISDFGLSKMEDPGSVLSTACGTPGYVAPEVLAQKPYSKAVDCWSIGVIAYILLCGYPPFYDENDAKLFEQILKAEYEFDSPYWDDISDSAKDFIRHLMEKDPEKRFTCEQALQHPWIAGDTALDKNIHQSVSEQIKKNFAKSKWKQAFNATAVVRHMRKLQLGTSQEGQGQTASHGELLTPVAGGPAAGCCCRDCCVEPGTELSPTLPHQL", "test": "Kinase profiling CAMK1", "source_text": "as §1"}, "[14]": {"system": "CK2", "test": "Kinase profiling CK2", "source_text": "as §1"}, "[15]": {"target": "T2, TTK (Homo sapiens, UniProt P33981)", "T2 sequence (P33981 1-857)": "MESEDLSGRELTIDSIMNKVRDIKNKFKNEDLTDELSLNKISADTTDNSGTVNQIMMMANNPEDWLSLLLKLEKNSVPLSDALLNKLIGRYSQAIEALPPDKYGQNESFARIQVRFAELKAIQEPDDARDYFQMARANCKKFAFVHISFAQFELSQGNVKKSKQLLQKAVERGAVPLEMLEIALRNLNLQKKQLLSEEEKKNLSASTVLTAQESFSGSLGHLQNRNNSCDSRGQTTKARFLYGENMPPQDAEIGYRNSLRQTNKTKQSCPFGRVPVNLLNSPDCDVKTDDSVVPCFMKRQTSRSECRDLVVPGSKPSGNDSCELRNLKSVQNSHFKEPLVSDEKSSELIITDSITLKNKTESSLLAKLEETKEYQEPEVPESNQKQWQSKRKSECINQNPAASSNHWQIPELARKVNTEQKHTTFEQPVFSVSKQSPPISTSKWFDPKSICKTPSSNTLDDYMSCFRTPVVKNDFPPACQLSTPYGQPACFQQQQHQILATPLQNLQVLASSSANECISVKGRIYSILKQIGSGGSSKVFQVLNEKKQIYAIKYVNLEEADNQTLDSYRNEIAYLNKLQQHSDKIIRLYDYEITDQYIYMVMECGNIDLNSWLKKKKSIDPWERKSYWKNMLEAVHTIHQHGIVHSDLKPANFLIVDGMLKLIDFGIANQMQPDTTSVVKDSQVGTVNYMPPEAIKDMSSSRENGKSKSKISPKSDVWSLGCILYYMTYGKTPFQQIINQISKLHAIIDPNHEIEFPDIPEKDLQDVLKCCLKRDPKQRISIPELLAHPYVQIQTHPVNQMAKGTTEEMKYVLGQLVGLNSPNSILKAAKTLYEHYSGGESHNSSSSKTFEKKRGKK", "test": "Kinase profiling TTK", "source_text": "as §1"}, "[16]": {"target": "Src (Homo sapiens, UniProt P12931)", "sequence (P12931 whole entry, species assumed)": "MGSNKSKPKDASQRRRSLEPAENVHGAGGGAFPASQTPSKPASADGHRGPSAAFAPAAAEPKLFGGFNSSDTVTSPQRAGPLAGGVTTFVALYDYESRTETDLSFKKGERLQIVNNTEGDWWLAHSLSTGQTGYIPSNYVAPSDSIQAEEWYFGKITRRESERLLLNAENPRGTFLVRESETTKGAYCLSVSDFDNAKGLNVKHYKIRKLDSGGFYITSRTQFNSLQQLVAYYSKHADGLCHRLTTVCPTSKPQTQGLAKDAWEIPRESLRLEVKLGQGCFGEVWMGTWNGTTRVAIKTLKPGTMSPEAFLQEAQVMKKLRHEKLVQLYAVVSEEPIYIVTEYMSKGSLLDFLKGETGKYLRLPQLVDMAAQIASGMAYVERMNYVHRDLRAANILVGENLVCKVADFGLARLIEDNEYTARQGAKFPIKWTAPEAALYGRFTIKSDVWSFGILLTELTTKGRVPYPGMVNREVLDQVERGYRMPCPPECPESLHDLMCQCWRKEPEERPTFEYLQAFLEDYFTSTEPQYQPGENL", "test": "Kinase profiling Src", "source_text": "as §1"}, "[17]": {"target": "PAK4 (Homo sapiens, UniProt O96013)", "test": "Kinase profiling PAK4", "source_text": "as §1"}, "[18]": {"target": "CHK2 (Homo sapiens, UniProt O96017)", "test": "Kinase profiling CHK2", "source_text": "as §1"}, "[19]": {"settings": "100 micromolar inhibitor concentration, 100 is no change"}, "[20]": {"settings": "100 micromolar inhibitor, 100 = no change"}}}
{"smiles": "CC(=O)Nc1cccc(C(=O)Nc2nc3ccc(O)cc3s2)c1", "note": "[Compound 03-58]", "values": [{"measurement": "residual kinase activity, JNK1", "setting": "[1]; [19]", "value": 80}, {"measurement": "residual kinase activity, RSK2", "setting": "[2]", "value": 51}, {"measurement": "residual kinase activity, PDK1", "setting": "[3]; [19]", "value": 96}, {"measurement": "residual kinase activity, MKK1", "setting": "[4]; [19]", "value": 52}, {"measurement": "residual kinase activity, p38b MAPK", "setting": "[5]", "value": 75}, {"measurement": "residual kinase activity, RSK1", "setting": "[6]; [19]", "value": 35}, {"measurement": "residual kinase activity, ERK2", "setting": "[7]", "value": 104}]}
{"smiles": "CC(=O)NC(C)C(=O)Nc1nc2ccc(C(F)(F)F)cc2s1", "note": "(stereo not drawn) [Compound 03-80]", "values": [{"measurement": "residual kinase activity, JNK1", "setting": "[1]; [19]", "value": 86}, {"measurement": "residual kinase activity, RSK2", "setting": "[2]", "value": 66}, {"measurement": "residual kinase activity, PDK1", "setting": "[3]; [19]", "value": 86}, {"measurement": "residual kinase activity, MKK1", "setting": "[4]; [19]", "value": 80}, {"measurement": "residual kinase activity, p38b MAPK", "setting": "[5]", "value": 77}, {"measurement": "residual kinase activity, RSK1", "setting": "[6]; [19]", "value": 90}, {"measurement": "residual kinase activity, ERK2", "setting": "[7]", "value": 101}]}
{"smiles": "COc1ccc2sc(NC(=O)c3cccc(C(N)=O)c3)nc2c1", "note": "[Compound 03-113]", "values": [{"measurement": "residual kinase activity, TrkA", "setting": "[8]; [19]", "value": 87}, {"measurement": "residual kinase activity, DYRK1A", "setting": "[9]; [19]", "value": 51}, {"measurement": "residual kinase activity, HER4", "setting": "[10]; [19]", "value": 103}, {"measurement": "residual kinase activity, JNK1", "setting": "[1]; [19]", "value": 86}, {"measurement": "residual kinase activity, PLK1", "setting": "[11]; [19]", "value": 105}, {"measurement": "residual kinase activity, NEK6", "setting": "[12]; [19]", "value": 99}, {"measurement": "residual kinase activity, CAMK1", "setting": "[13]; [19]", "value": 102}, {"measurement": "residual kinase activity, PDK1", "setting": "[3]; [19]", "value": 101}, {"measurement": "residual kinase activity, CK2", "setting": "[14]; [19]", "value": 46}, {"measurement": "residual kinase activity, MKK1", "setting": "[4]; [19]", "value": 119}, {"measurement": "residual kinase activity, RSK1", "setting": "[6]; [19]", "value": 87}, {"measurement": "residual kinase activity, TTK", "setting": "[15]; [19]", "value": 95}, {"measurement": "residual kinase activity, Src", "setting": "[16]; [19]", "value": 79}, {"measurement": "residual kinase activity, PAK4", "setting": "[17]; [19]", "value": 109}, {"measurement": "residual kinase activity, CHK2", "setting": "[18]; [19]", "value": 98}]}
{"smiles": "CC(=O)Nc1ccccc1C(=O)Nc1nc2ccc(O)cc2s1", "note": "[Compound 08-39]", "values": [{"measurement": "residual kinase activity, JNK1", "setting": "[1]; [19]", "value": 92}, {"measurement": "residual kinase activity, RSK2", "setting": "[2]", "value": 2}, {"measurement": "residual kinase activity, PDK1", "setting": "[3]; [19]", "value": 66}, {"measurement": "residual kinase activity, MKK1", "setting": "[4]; [19]", "value": 106}, {"measurement": "residual kinase activity, p38b MAPK", "setting": "[5]", "value": 96}, {"measurement": "residual kinase activity, RSK1", "setting": "[6]; [19]", "value": 30}, {"measurement": "residual kinase activity, ERK2", "setting": "[7]", "value": 68}]}
{"smiles": "COc1ccc2nc(C(=O)Nc3ccccc3)sc2c1", "note": "[Compound 13-03]", "values": [{"measurement": "residual kinase activity, TrkA", "setting": "[8]; [20]", "value": 55}, {"measurement": "residual kinase activity, DYRK1A", "setting": "[9]; [20]", "value": 45}, {"measurement": "residual kinase activity, HER4", "setting": "[10]; [20]", "value": 130}, {"measurement": "residual kinase activity, JNK1", "setting": "[1]; [20]", "value": 88}, {"measurement": "residual kinase activity, PLK1", "setting": "[11]; [20]", "value": 93}, {"measurement": "residual kinase activity, NEK6", "setting": "[12]; [20]", "value": 107}, {"measurement": "residual kinase activity, CAMK1", "setting": "[13]; [20]", "value": 94}, {"measurement": "residual kinase activity, PDK1", "setting": "[3]; [20]", "value": 113}, {"measurement": "residual kinase activity, CK2", "setting": "[14]; [20]", "value": 97}, {"measurement": "residual kinase activity, MKK1", "setting": "[4]; [20]", "value": 70}, {"measurement": "residual kinase activity, RSK1", "setting": "[6]; [20]", "value": 77}, {"measurement": "residual kinase activity, TTK", "setting": "[15]; [20]", "value": 108}, {"measurement": "residual kinase activity, Src", "setting": "[16]; [20]", "value": 100}, {"measurement": "residual kinase activity, PAK4", "setting": "[17]; [20]", "value": 58}, {"measurement": "residual kinase activity, CHK2", "setting": "[18]; [20]", "value": 92}]}
